This is an account of results in patent US20180180595A1, “CELL LINES MUTANT FOR PATCHED 1 AND PATCHED 2 AND METHODS OF USE THEREOF” (The Regents of the University of California, priority 2015, published 2018).

In this test the test system is hedgehog response pathway. Nature of the test: Hh pathway response in neuralized embryoid bodies from Ptch1-/-;Ptch2-/- mESCs. Format: cell-based, murine. Conditions: Ptch1-/-;Ptch2-/- mESCs differentiated into NEBs; agent added exogenously. From the text: In the absence of Ptch1, Ptch2 can mediate some measure of the Shh response. Given the contribution of both Ptch1 and Ptch2 to the interpretation of the Shh signal, it was reasoned that a Ptch1^−/−;Ptch2^−/− genetic background was essential to assess the aggregate contribution of Ptch1/2 to Shh signaling. […] The Ptch1^−/−;Ptch2^−/−;Shh^−/− assessed here have a LacZ under the control of the Ptch1 promoter (Goodrich et al., Science. 1997, 277:1109-1113). Since the upregulation of Ptch1 is a common response to the activation of the Hh response pathway, induction of LacZ in NEBs was assessed. A strong induction of LacZ was observed after three days into the differentiation protocol, consistent with the ventral identity observed using neural markers.

Structures are written as SMILES.

For `CNC1CCC(N(Cc2cccc(-c3ccncc3)c2)C(=O)c2sc3ccccc3c2Cl)CC1` (stereo not shown) [SAG], the “induction of the hedgehog response pathway” value is given as “could not be further induced”.
